Activity calls are given as the source filed them. No cut-off for these calls is given here.
Key:
Staphylococcus aureus [1] = assay: Antibacterial activity against methicillin-resistant Staphylococcus aureus infected in C57BL/6 mouse model assessed as reduction in bacterial dissemination from PLF to blood at 25 mg/kg, ip preadministered for 12 hrs followed by bacterial infection and measured after 24 hrs; type: functional, organism-based; details: time 36.0 hrs
Staphylococcus aureus [2] = assay: Antibacterial activity methicillin-resistant Staphylococcus aureus infected in C57BL/6 mouse model assessed as increase in survival at 25 mg/kg, ip preadministered for 12 hrs followed by bacterial infection and measured after 60 hrs by Kaplan Meier survival analysis; type: functional, organism-based; details: time 72.0 hrs
[3] = Toxicity in male C57BL/6 mouse assessed as effect on creatinine level in serum up to 100 mg/kg, ip measured after 12 hrs; type: organism-based; details: in vivo
Staphylococcus aureus [4] = assay: Antibacterial activity against methicillin-resistant Staphylococcus aureus infected in C57BL/6 mouse model assessed as reduction in bacterial dissemination from PLF to kidney at 25 mg/kg, ip preadministered for 12 hrs followed by bacterial infection and measured after 24 hrs; type: functional, organism-based; details: time 36.0 hrs
RAW264.7 [5] = assay: Induction of phagocytosis in mouse RAW264.7 cells assessed as upregulation of CD68 mRNA expression by qRT-PCR analysis; type: functional, cell-based
RAW264.7 [6] = assay: Induction of phagocytosis in zymosan A stimulated mouse RAW264.7 cells assessed as upregulation of SR-A1 mRNA expression at 5.0 uM incubated for 12 hrs by qRT-PCR analysis; type: functional, cell-based
[7] = Toxicity in male C57BL/6 mouse assessed as effect on aspartate aminotransferase (AST) level in serum up to 100 mg/kg, ip measured after 12 hrs; type: organism-based; details: in vivo
RAW264.7 [8] = assay: Induction of phagocytosis in zymosan A stimulated mouse RAW264.7 cells assessed as upregulation of CD68 mRNA expression at 5.0 uM incubated for 12 hrs by qRT-PCR analysis; type: functional, cell-based
RAW264.7 [9] = assay: Induction of phagocytosis in zymosan A stimulated mouse RAW264.7 cells assessed as upregulation of CD32 mRNA expression at 5.0 uM incubated for 12 hrs by qRT-PCR analysis; type: functional, cell-based
Cytochrome P450 1A1 = molecular target: T1, Cytochrome P450 1A1 (Homo sapiens, UniProt P04798); assay: Inhibition of CYP1A1 in human Caco-2 cells assessed as relative activity by measuring fold change at 5.0 uM incubated for 12 hrs by EROD assay relative to control; type: cell-based; details: caco-2, 12 h
T1 sequence (P04798 whole entry): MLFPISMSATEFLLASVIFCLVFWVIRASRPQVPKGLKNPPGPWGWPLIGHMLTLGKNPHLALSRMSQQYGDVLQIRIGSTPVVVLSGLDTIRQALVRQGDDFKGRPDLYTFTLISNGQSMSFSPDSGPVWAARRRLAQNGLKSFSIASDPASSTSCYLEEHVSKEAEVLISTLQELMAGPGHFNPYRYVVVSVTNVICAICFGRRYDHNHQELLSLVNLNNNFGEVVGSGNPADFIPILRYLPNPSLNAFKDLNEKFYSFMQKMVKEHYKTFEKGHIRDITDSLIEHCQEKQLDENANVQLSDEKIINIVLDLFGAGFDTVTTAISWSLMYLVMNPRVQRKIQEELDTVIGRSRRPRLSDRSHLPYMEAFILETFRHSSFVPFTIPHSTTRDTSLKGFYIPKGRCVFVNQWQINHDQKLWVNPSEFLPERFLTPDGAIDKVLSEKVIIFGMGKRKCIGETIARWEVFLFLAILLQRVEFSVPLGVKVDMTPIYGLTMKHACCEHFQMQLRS

RAW264.7 [10] = assay: Induction of phagocytosis in mouse RAW264.7 cells assessed as upregulation of CD68 protein level by flow cytometric analysis; type: functional, cell-based
Staphylococcus aureus [11] = assay: Antibacterial activity against methicillin-resistant Staphylococcus aureus infected in C57BL/6 mouse model assessed as reversal of aspartate aminotransferase level in serum at 25 mg/kg, ip administered for 12 hrs by absorbance based microplate reader; type: functional, organism-based
CYP1A1 [12] = molecular target: T2, CYP1A1 (Homo sapiens, UniProt P04798); assay: Inhibition of CYP1A1 in human Caco-2 cells assessed as relative activity by measuring fold change at 500 nM incubated for 12 hrs by EROD assay relative to control; type: cell-based; details: read-out: FC
T2 sequence (P04798 whole entry): T1 sequence (P04798 whole entry)

Acinetobacter baumannii = assay: Antibacterial activity against Acinetobacter baumannii infected in C57BL/6 mouse assessed as increase in survival at 25 mg/kg, ip preadministered for 12 hrs followed by bacterial infection and measured after 60 hrs by Kaplan Meier survival analysis; type: functional, organism-based; details: time 72.0 hrs
THP-1 = assay: Induction of phagocytosis in human THP-1-derived macrophages infected with hexidine iodide labelled methicillin-R Staphylococcus aureus at 5 uM preincubated for 12 hrs followed by bacterial infection and measured after 1 hrs by fluorescence based confocal microscopic analysis; type: functional, cell-based; details: time 13.0 hrs
Staphylococcus aureus [13] = assay: Antibacterial activity against methicillin-resistant Staphylococcus aureus infected in C57BL/6 mouse assessed as reduction in kidney damage at 25 mg/kg, ip administered for 12 hrs by H and E staining based analysis; type: functional, organism-based
CYP1A1 [14] = molecular target: T3, CYP1A1 (Mus musculus, UniProt P00184); assay: Inhibition of CYP1A1 in mouse RAW264.7 cells at 500 nM incubated for 12 hrs by EROD assay relative to control; type: cell-based
T3 sequence (P00184 whole entry): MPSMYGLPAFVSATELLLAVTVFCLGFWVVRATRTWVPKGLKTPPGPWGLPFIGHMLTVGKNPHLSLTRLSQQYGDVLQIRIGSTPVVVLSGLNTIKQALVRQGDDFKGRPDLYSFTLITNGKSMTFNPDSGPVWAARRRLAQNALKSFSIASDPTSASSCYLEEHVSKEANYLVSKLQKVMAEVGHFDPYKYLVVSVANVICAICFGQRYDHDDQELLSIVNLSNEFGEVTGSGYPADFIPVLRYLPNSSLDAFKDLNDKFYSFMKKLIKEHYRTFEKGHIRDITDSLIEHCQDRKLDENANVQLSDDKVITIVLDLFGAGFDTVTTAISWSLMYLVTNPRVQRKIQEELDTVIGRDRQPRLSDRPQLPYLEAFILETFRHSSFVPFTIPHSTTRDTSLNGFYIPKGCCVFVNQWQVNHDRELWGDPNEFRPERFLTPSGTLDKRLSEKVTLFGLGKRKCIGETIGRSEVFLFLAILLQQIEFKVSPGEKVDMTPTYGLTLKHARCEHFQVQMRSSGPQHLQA

CYP1A1 [15] = molecular target: T2, CYP1A1; assay: Inhibition of CYP1A1 in human Caco-2 cells at 500 nM incubated for 12 hrs by EROD assay relative to control; type: cell-based

SMILES	Activity (Staphylococcus aureus [1])	Activity (Staphylococcus aureus [2])	Activity [3]	Activity (Staphylococcus aureus [4])	Activity (RAW264.7 [5])	Activity (RAW264.7 [6])	Activity [7]	Activity (RAW264.7 [8])	Activity (RAW264.7 [9])	fold change (FC) (Cytochrome P450 1A1)	Activity (RAW264.7 [10])	Activity (Staphylococcus aureus [11])	fold induction at 12 h, 0.5 µM (CYP1A1 [12])	Activity (Acinetobacter baumannii)	Activity (THP-1)	Activity (Staphylococcus aureus [13])	inhibition at 12 h, 0.5 µM (CYP1A1 [14]) [%]	inhibition at 12 h, 0.5 µM (CYP1A1 [15]) [%]
Cn1cc(/C=C/C(=O)c2ccc3c(c2)n(C)c(=O)n3C)c2ccccc21	Active	Active	Non-toxic	Active	Active	Active	Non-toxic	Active	Active	0.09	Active	Active	0.25	Active	Active	Active		
C#Cc1ccccc1/C=C/C(=O)c1ccc2c(c1)n(C)c(=O)n2C	Active	Active	Non-toxic	Active	Active	Active	Non-toxic	Active	Active	0.01	Active	Active	0.06	Active	Active	Active	< 10	< 10
